Assay results as given in patent publication US11123328B2 (UNIVERSITY HEALTH NETWORK, priority 2017, dated 2021).
“Also recorded” adds a separate entry of the source.

Tests used:
[1] = system: Langendorff-perfused rabbit hearts; assay: Calcium alternans by optical mapping in Langendorff-perfused rabbit hearts stressed by VF (Example 1); settings: for CaAR (calcium alternans ratio) / SD of CaAR (surrogate for spatial dyssynchrony): azumolene 20 μM; for SD of CaAR (surrogate for spatial dyssynchrony): n=8
Text: The term “cardiac dyssynchrony” as used herein means improper synchronization of calcium cycling in the heart or a part thereof, including for example temporal dyssynchrony and/or spatial dyssynchrony, optionally due to calcium leak from ryanodine type 2 receptor (RyR2) channels, leading to decreased calcium uptake and/or release in the sarcoplasmic reticulum (SR). RyR2 are found primarily in cardiac muscle and are a major mediator for SR release of calcium ions. Spatio-temporal dyssynchrony of calcium alternans can be measured by calculating a calcium alternans ratio (CaAR) for temporal mechanical dyssynchrony or by measuring the standard deviation (SD) of CaAR as a surrogate for spatial mechanical dyssynchrony. CaAR can be calculated as the amplitude of a Ca peak divided by the amplitude of a following Ca peak in a calcium transient measurement such as in FIG. 5. The smallest amplitude of Ca peak is divided by the largest amplitude of Ca peak. The larger the ratio the more similar the peak sizes. A ratio of 1 indicates no calcium alternans. Ratios of less than 1, optionally 0.8, 0.7 etc are indicative of cardiac dyssynchrony. Similarly mean standard deviations in calcium alternans ratios of greater than 0.05, greater than 0.06 or greater than 0.07 etc are indicative of cardiac dyssynchrony.
Their effect on temporal calcium alternans ratio (CaAR) before and after ventricular fibrillation (VF) (as a surrogate for temporal mechanical dyssynchrony) and standard deviation (SD) of CaAR from the anterior wall of left ventricular, which is used as a surrogate for spatial mechanical dyssynchrony, were assessed. […] Simultaneous optical mapping was performed. Calcium alternans are defined as beat-to-beat variability of 10% or more in calcium transient amplitudes.

[2] = system: patients without known cardiac disease; assay: Safety of chronic oral dantrolene, 10-year experience: ECG and echocardiogram (Example 5)
Text: If more than 1 electrocardiogram and/or echocardiogram were available for any single patient, all were studied (to assess for any abnormality), but only the latest (with the longest therapy duration) was included in the analysis.

[3] = system: patients without known cardiac diseases; settings: human, in vivo
[4] = system: ventricular arrhythmia swine model; settings: previous work [4]; cited from earlier work
[5] = system: patients without known cardiac diseases; assay: Safety of chronic oral dantrolene: ECG, echo, Holter, stress test in patients (Example 4)
animal hearts = assay: Optical mapping and LVDP in hearts subjected to myopathic insults, azumolene pre-treated or not (Example 3); settings: for calcium alternans ratio map values: scale 0.00 to 0.40
Experimental: FIGS. 6A and 6B are a schematic and images, respectively, of the experimental protocol of animal hearts, pre-treated or not with azumolene, subjected to myopathic insults.
The effect of azumolene was further investigated. Optical mapping and left ventricular developed pressure (LVDP) were measured at baseline and following inducement of myopathic insults to the hearts (see FIGS. 6A and 6B). […] FIGS. 8A and 8B show the occurrence of spatial dyssynchronic in untreated compared to azumolene-treated hearts.

[6] = both, human, in vivo, 10.9 years
[7] = azumolene pretreatment, following myopathic insults, FIG. 9

O=C1CN(/N=C/c2ccc(-c3ccc([N+](=O)[O-])cc3)o2)C(O)=N1 [dantrolene]
heterogeneity in calcium alternans in response to myopathic stress [1]: minimizes heterogenity in calcium alternans
Number of patients with PR >200 ms [2, 6]: 1 (5) n (%)
Number of patients with QTc >460 ms [2, 6]: 1 (5) n (%)
QTc of the patient with QTc >460 ms ([2]; female, human, in vivo): 465 ms
Absolute change in average PR ± SD ([2]; human, in vivo): 12 ± 8 (p = 0.14) ms
Absolute change in average QRS ± SD ([2]; human, in vivo): 4 ± 3, (p = 0.71) ms
Absolute change in average QTc ± SD ([2]; human, in vivo): 12 ± 17, (p = 0.27) ms
PR of the patient with PR >200 ms ([2]; human, in vivo): 222 ms
QRS or QTc prolongation ([2]; in vivo): did not have QRS or QTc prolongation
conduction and repolarization parameters ([2]; in vivo): within normal limits
dose-related QTc prolongation ([2]; in vivo): No dose-related QTc prolongation
left ventricular (LV) size and systolic function ([2]; in vivo): normal
rhythm in electrocardiograms ([2]; in vivo): sinus rhythm
major cardiac events (serious arrhythmia, sudden death, or myocardial infarction) ([2]; mean 10.9±6 years follow-up): no major cardiac events
LV size and function [3]: normal
arrhythmia in Holter or stress tests [3]: No major arrhythmia
rest of the depolarization and repolarization parameters [3]: within normal limits
rhythm in ECGs [3]: sinus rhythm
JTc ([3]; po): 304 ± 79 ms
QRS ([3]; po): 98 ± 10 ms
QRS or QTc prolongation, arrhythmia, pauses, significant cardiac events ([3]; po): did not have QRS or QTc prolongation, arrhythmia, pauses, or significant cardiac events
effect on LV systolic function ([3]; po): No detrimental effect
mean heart rate ([3]; po): 67 (±14)
effect on the QT [4]: did not affect the QT
PR ([5]; chronic oral dantrolene (>3 months)): 173 ± 19 ms
major cardiac events (life-threatening arrhythmia, sudden death, myocardial infarction) ([5]; during dantrolene therapy, most >5 years): No major cardiac events

O=C1CN(/N=C/c2ncc(-c3ccc(Br)cc3)o2)C(=O)N1 [azumolene]
heterogeneity in calcium alternans in response to myopathic stress [1]: minimizes heterogenity in calcium alternans
CaAR (calcium alternans ratio) ([1]; after 1st VF): 0.97±0.02
SD of CaAR (surrogate for spatial dyssynchrony) ([1]; after 1st VF): 0.025±0.003
CaAR (calcium alternans ratio) ([1]; after 2nd VF): 0.94±0.02
SD of CaAR (surrogate for spatial dyssynchrony) ([1]; after 2nd VF): 0.039±0.004
spatial calcium release dyssynchrony (calcium release tracings) ([1]; azumolene-treated vs untreated hearts after VF, FIG. 2): reduced spacial calcium release dyssynchrony; also recorded: spatial calcium release disordering is abrogated
calcium alternans in ratio maps ([1]; post 1st VF at 6.0 Hz, FIG. 5D vs 5B): fewer calcium alternans
mean calcium alternans index (animal hearts; after myopathic insults, FIG. 7): untreated-hearts increased significantly compared to azumolene-treated hearts
LVDP (animal hearts; [7]): significantly improved
dp/dtmax (animal hearts; [7]): significantly improved
calcium alternans ratio map values (animal hearts; azumolene-treated heart at baseline, FIG. 8A): 0.025 to 0.05
calcium alternans ratio map values (animal hearts; azumolene-treated heart post myopathic insults, FIG. 8A): 0.05 to 0.1
mean of standard deviation (animal hearts; post myopathic insults, FIG. 8B): significantly increased in the control group post myopathic insults compared to the azumolene-treated group
spatial calcium release dyssynchrony (animal hearts; vs untreated hearts, FIG. 8A): reduce spatial calcium release dyssynchrony
